PubChem BioAssay (NCI)
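How tested: cells in 96-well plates exposed to compound for 48 hours at five concentrations. At the TGI there is no net growth.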

Experiments:
Experiment in all cases: inhibition of tumour cell growth, NCI panel, 48 h
[1] = tested on: MCF7 breast
[2] = tested on: SR leukemia
[3] = tested on: TK-10 renal
[4] = tested on: SNB-75 CNS
[5] = tested on: SNB-19 CNS
[6] = tested on: M14 melanoma
[7] = tested on: SF-539 CNS
[8] = tested on: 786-0 renal
[9] = tested on: MDA-N
[10] = tested on: PC-3 prostate
[11] = tested on: OVCAR-3 ovarian
[12] = tested on: HL-60(TB) leukemia
[13] = tested on: EKVX NSCLC
[14] = tested on: NCI-H460 lung
[15] = tested on: SF-295 CNS
[16] = tested on: LOX IMVI melanoma
[17] = tested on: OVCAR-4 ovarian
[18] = tested on: HCT-15 colon
[19] = tested on: SK-MEL-2 melanoma
[20] = tested on: CAKI-1 renal
[21] = tested on: MOLT-4 leukemia
[22] = tested on: COLO 205 colon
[23] = tested on: SN12C renal
[24] = tested on: T-47D breast
[25] = tested on: SK-OV-3 ovarian
[26] = tested on: UO-31 renal
[27] = tested on: NCI-H226 lung
[28] = tested on: OVCAR-8 ovarian
[29] = tested on: BT-549 breast
[30] = tested on: RXF 393 renal
[31] = tested on: HT29 colon
[32] = tested on: HCC-2998 colon
[33] = tested on: SW-620 colon
[34] = tested on: SK-MEL-5 melanoma
[35] = tested on: U251 CNS
[36] = tested on: A498 renal
[37] = tested on: NCI-H23 lung
[38] = tested on: UACC-62 melanoma
[39] = tested on: MDA-MB-435
[40] = tested on: IGROV1 ovarian
[41] = tested on: A549 NSCLC
[42] = tested on: NCI-H522 lung
[43] = tested on: SK-MEL-28 melanoma
[44] = tested on: NCI/ADR-RES ovarian
[45] = tested on: DU-145 prostate
[46] = tested on: KM12 colon
[47] = tested on: SF-268 CNS
[48] = tested on: OVCAR-5 ovarian
[49] = tested on: HOP-92 NSCLC
[50] = tested on: K-562 leukemia
[51] = tested on: RPMI-8226 leukemia
[52] = tested on: ACHN renal
[53] = tested on: HS 578T breast
[54] = tested on: CCRF-CEM leukemia
[55] = tested on: HCT-116 colon
[56] = tested on: MDA-MB-231 breast
[57] = tested on: UACC-257 melanoma
[58] = tested on: HOP-62 NSCLC

`CCOC(=O)c1c(Sc2ccc([N+](=O)[O-])cc2[N+](=O)[O-])nc2c3ccccc3ccn12` was tested, and the TGI [1] was greater than 100 µM, the TGI [2] was greater than 100 µM and the TGI [3] was greater than 100 µM. The TGI [4] was greater than 100 µM, the TGI [5] was greater than 100 µM and the TGI [6] was greater than 100 µM. The TGI [7] was greater than 94.8 µM, the TGI [8] was greater than 38.6 µM and the TGI [9] was greater than 100 µM. For the same molecule, the TGI [10] was greater than 100 µM, the TGI [11] was greater than 100 µM and the TGI [12] was greater than 100 µM. It also gave a TGI [13] greater than 100 µM, a TGI [14] greater than 100 µM and a TGI [15] greater than 100 µM. The TGI [16] was greater than 100 µM, the TGI [17] was greater than 100 µM and the TGI [18] was greater than 100 µM. For the same molecule, the TGI [19] was greater than 100 µM, the TGI [20] was greater than 100 µM and the TGI [21] was greater than 100 µM. For the same molecule, the TGI [22] was greater than 100 µM, the TGI [23] was greater than 100 µM and the TGI [24] was greater than 100 µM. For the same molecule, the TGI [25] was 69.7 µM, the TGI [26] was greater than 100 µM and the TGI [27] was greater than 100 µM. It also gave a TGI [28] greater than 100 µM, a TGI [29] greater than 100 µM and a TGI [30] greater than 92.9 µM. It also gave a TGI [31] greater than 100 µM, a TGI [32] greater than 100 µM and a TGI [33] greater than 100 µM. It also gave a TGI [34] greater than 100 µM, a TGI [35] greater than 100 µM and a TGI [36] greater than 100 µM. For the same molecule, the TGI [37] was greater than 100 µM, the TGI [38] was greater than 65.9 µM and the TGI [39] was greater than 100 µM. For the same molecule, the TGI [40] was greater than 31.6 µM, the TGI [41] was greater than 100 µM and the TGI [42] was greater than 100 µM. For the same molecule, the TGI [43] was greater than 100 µM, the TGI [44] was greater than 100 µM and the TGI [45] was greater than 100 µM. The TGI [46] was greater than 100 µM, the TGI [47] was greater than 100 µM and the TGI [48] was greater than 100 µM. The TGI [49] was 41.3 µM, the TGI [50] was greater than 100 µM and the TGI [51] was greater than 100 µM. It also gave a TGI [52] greater than 100 µM, a TGI [53] greater than 92.3 µM and a TGI [54] greater than 100 µM. For the same molecule, the TGI [55] was greater than 100 µM, the TGI [56] was greater than 100 µM and the TGI [57] was greater than 100 µM. The TGI [58] was greater than 59.4 µM.

`COC1=CC(=O)c2c(c(-c3csc(C)n3)cn2C)C1=O` was tested, and the TGI [1] was greater than 69.5 µM, the TGI [2] was greater than 100 µM and the TGI [3] was greater than 100 µM. The TGI [4] was 19 µM, the TGI [5] was greater than 81.2 µM and the TGI [6] was greater than 100 µM. The TGI [7] was 54.7 µM, the TGI [8] was greater than 76.7 µM and the TGI [9] was 35.1 µM. It also gave a TGI [10] greater than 68.6 µM, a TGI [11] of 36.4 µM and a TGI [12] of 23.9 µM. For the same molecule, the TGI [13] was 77.9 µM, the TGI [14] was 19.9 µM and the TGI [15] was greater than 67.1 µM. For the same molecule, the TGI [16] was greater than 100 µM, the TGI [17] was greater than 100 µM and the TGI [18] was greater than 52.5 µM. The TGI [19] was greater than 63.8 µM, the TGI [20] was greater than 73.5 µM and the TGI [21] was greater than 100 µM. The TGI [22] was greater than 71.1 µM, the TGI [23] was greater than 68.9 µM and the TGI [24] was greater than 64.3 µM. The TGI [25] was greater than 100 µM, the TGI [26] was greater than 73.4 µM and the TGI [27] was greater than 100 µM. It also gave a TGI [28] greater than 94.8 µM, a TGI [29] greater than 100 µM and a TGI [30] of 43.3 µM. For the same molecule, the TGI [31] was 91.6 µM, the TGI [32] was greater than 100 µM and the TGI [33] was greater than 100 µM. The TGI [34] was 4.97 µM, the TGI [35] was greater than 100 µM and the TGI [36] was 72.6 µM. The TGI [37] was 15 µM, the TGI [38] was 42.5 µM and the TGI [39] was 26.8 µM. The TGI [40] was 72.2 µM, the TGI [41] was greater than 41.6 µM and the TGI [42] was 91.4 µM. The TGI [43] was greater than 100 µM, the TGI [44] was greater than 79.1 µM and the TGI [45] was greater than 45.9 µM. The TGI [46] was greater than 100 µM, the TGI [47] was greater than 100 µM and the TGI [48] was greater than 95 µM. For the same molecule, the TGI [49] was greater than 100 µM, the TGI [50] was greater than 100 µM and the TGI [51] was greater than 19.8 µM. The TGI [52] was greater than 71.9 µM, the TGI [53] was greater than 100 µM and the TGI [54] was greater than 94.4 µM. For the same molecule, the TGI [55] was greater than 77.5 µM, the TGI [56] was greater than 86.6 µM and the TGI [57] was 32.6 µM. For the same molecule, the TGI [58] was greater than 68.4 µM.

Molecule `CC(=O)N(C)C(C(=O)N1CC(C)CC1C(=O)N(C)C1C(=O)NC(CC(C)C)C(=O)N2CC(C)CC2C(=O)NC(CC(C)C)C(=O)N(C)C(C(C)C)C(=O)N2CCCC2C(=O)N(C)C(CC(C)C)C(=O)NCC(=O)OC1C)C(C)C` (centres undefined) has a TGI [1] greater than 100 µM, a TGI [2] greater than 100 µM and a TGI [3] greater than 100 µM. The TGI [4] was greater than 100 µM, the TGI [5] was greater than 100 µM and the TGI [6] was greater than 100 µM. For the same molecule, the TGI [7] was greater than 100 µM, the TGI [8] was greater than 100 µM and the TGI [9] was greater than 100 µM. For the same molecule, the TGI [10] was greater than 100 µM, the TGI [11] was greater than 100 µM and the TGI [12] was greater than 100 µM. It also gave a TGI [13] greater than 100 µM, a TGI [14] greater than 100 µM and a TGI [15] greater than 100 µM. The TGI [16] was greater than 100 µM, the TGI [17] was greater than 100 µM and the TGI [18] was greater than 100 µM. It also gave a TGI [19] greater than 100 µM, a TGI [20] greater than 100 µM and a TGI [21] greater than 100 µM. It also gave a TGI [22] greater than 100 µM, a TGI [23] greater than 100 µM and a TGI [24] greater than 100 µM. The TGI [25] was greater than 100 µM, the TGI [26] was greater than 100 µM and the TGI [27] was greater than 100 µM. The TGI [28] was greater than 100 µM, the TGI [29] was greater than 100 µM and the TGI [30] was greater than 100 µM. It also gave a TGI [31] greater than 100 µM, a TGI [32] greater than 100 µM and a TGI [33] greater than 100 µM. It also gave a TGI [34] greater than 100 µM, a TGI [35] greater than 100 µM and a TGI [36] greater than 100 µM. For the same molecule, the TGI [37] was greater than 100 µM, the TGI [38] was greater than 100 µM and the TGI [39] was greater than 100 µM. It also gave a TGI [40] greater than 100 µM, a TGI [41] greater than 100 µM and a TGI [42] greater than 100 µM. For the same molecule, the TGI [43] was greater than 100 µM, the TGI [44] was greater than 100 µM and the TGI [45] was greater than 100 µM. It also gave a TGI [46] greater than 100 µM, a TGI [47] greater than 100 µM and a TGI [48] greater than 100 µM. It also gave a TGI [49] greater than 100 µM, a TGI [50] greater than 100 µM and a TGI [51] greater than 100 µM. It also gave a TGI [52] greater than 100 µM, a TGI [53] greater than 100 µM and a TGI [54] greater than 100 µM. It also gave a TGI [55] greater than 100 µM, a TGI [56] greater than 100 µM and a TGI [57] greater than 100 µM. For the same molecule, the TGI [58] was greater than 100 µM.
